According to publication PMC3172300, “Modulation of Catalytic Activity in Multi-Domain Protein Tyrosine Phosphatases” (PLoS ONE, 2011):
“And” between values parts separate entries of the source, which are not always exact repeats. Equal entries are not always repeated. Square brackets hold non-standard residues; d marks the D form. Peptide text beside a SMILES is read from it. pY = N[C@@H](Cc1ccc(OP(=O)(O)O)cc1)C(=O)O

Key:
[1] = biological target: T1, DLAR D2 (Drosophila melanogaster, UniProt P16621); assay: Surface Plasmon Resonance peptide binding, DLAR D2; details: column second binding site, single-site model
T1 construct: DLAR 1728-2029; His tag (pET-15b or pET-22b); made in house; host or cells: E. coli BL21(DE3)
T1 sequence (P16621 1728-2029): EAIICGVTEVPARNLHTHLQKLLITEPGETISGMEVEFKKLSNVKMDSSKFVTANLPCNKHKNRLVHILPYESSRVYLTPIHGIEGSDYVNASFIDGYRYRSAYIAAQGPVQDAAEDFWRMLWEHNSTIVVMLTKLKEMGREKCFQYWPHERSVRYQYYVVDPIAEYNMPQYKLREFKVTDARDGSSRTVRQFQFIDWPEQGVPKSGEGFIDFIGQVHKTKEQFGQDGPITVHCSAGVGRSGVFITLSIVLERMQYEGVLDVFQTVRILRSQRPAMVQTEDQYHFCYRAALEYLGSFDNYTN
Method: The binding of phosphotyrosine peptides to the PTP domains was studied by Surface Plasmon Resonance on a Biacore-2000 instrument (BIAcore, AB). All experiments were conducted at 25°C. DLAR PTP domains were immobilized onto carboxylated dextran CM5 chips (BIAcore AB) using the standard amine coupling procedure as recommended by the manufacturer. Binding and kinetic assays were performed in 10 mM HEPES, pH 8.0, 150 mM NaCl, 10 mM DTT and 3 mM EDTA at a flow rate of 5 µL/min. The peptides were used at concentrations ranging from 50–700 µM. Dissociation was initiated by replacing the analyte with buffer. The association and dissociation curves were monitored for 600 sec. Sensograms were analyzed with BIA-evaluation software version 2 (BIAcore AB). Sensograms for DLAR D1D2, DLAR D1HSSD2 and DLAR D1D2HSS were fitted to two-site binding equations. DLAR D1 and DLAR D2 sensograms were fitted using a single-site binding model.

[2] = biological target: T2, PTP99A D1D2 (Drosophila melanogaster, UniProt P35832); assay: Phosphatase assay using pNPP, PTP99A D1D2; format: biochemical; set-up: PTP99A 450-1050; His tag (pET-15b or pET-22b); made in house; host or cells: E. coli BL21(DE3); details: CGH buffer pH 6.5, 100 mM NaCl, 2 mM DTT
T2 sequence (P35832 450-1050): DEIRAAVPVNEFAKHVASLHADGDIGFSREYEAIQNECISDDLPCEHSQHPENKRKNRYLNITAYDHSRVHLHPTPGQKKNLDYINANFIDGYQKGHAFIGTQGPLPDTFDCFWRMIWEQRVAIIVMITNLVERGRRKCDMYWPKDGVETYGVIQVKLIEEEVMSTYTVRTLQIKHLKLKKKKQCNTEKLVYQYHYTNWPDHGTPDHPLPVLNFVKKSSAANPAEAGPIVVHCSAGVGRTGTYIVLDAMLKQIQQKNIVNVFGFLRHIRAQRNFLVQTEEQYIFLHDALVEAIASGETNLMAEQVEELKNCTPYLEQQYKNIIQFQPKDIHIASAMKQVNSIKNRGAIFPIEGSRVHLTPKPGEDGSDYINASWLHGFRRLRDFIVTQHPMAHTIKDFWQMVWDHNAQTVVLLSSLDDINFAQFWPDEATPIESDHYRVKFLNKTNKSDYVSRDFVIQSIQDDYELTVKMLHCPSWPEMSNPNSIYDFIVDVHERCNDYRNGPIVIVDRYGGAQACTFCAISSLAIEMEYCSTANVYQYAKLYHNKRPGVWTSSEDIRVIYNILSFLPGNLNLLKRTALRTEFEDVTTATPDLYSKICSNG
Method: Phosphatase activity of the recombinant PTP domains was determined by using para-Nitrophenylphosphate (pNPP), a small molecule generic substrate, as well as phosphotyrosine containing peptides. The pNPP assay was performed as reported previously, with a modification in the buffer composition (25 mM Citrate, Glycine and HEPES (CGH), pH 6.5, 100 mM NaCl and 2 mM DTT). Phosphatase activity with the phosphotyrosine peptides was ascertained by the malachite green reaction as described for PTPs previously. Briefly, the reaction mixture comprised of 0.01 µM protein incubated with increasing concentrations of different peptides in 25 mM citrate buffer pH 6.0, 100 mM NaCl and 2 mM DTT for 15 min at 25°C. The reaction was stopped by the addition of the Biomol Green reagent (Enzo Life Sciences) and the colour developed after 20 min was quantified at 650 nm. For all the assays, kinetic constants for the steady state catalysis were obtained by fitting the reaction curves to the Michaelis-Menten equation using the nonlinear regression module of Sigma plot software (Systat Software, Inc.).
The tandem PTP domains of PTP99A (PTP99A D1D2) and DLAR (DLAR D1D2) , the individual PTP domains (D1 and D2) as well as the active site mutants were expressed in E. coli and were purified using the protocols described earlier (Figure 1a, Figure S1a, b & c). The biochemical characterization and catalytic activity measurements were performed using pNPP as a substrate. […] Thus the D2 domain appears to have a regulatory role in both RPTPs- decreasing the catalytic activity in the case of DLAR while increasing the catalytic activity in the case of PTP99A (Figure 1b).

SMILES | kon ([1]; SPR Biacore-2000, 25°C, 10 mM HEPES pH 8.0, 150 mM NaCl, 10 mM DTT, 3 mM EDTA, peptides 50–700 µM, read-out: ka) | Kd ([1]; SPR, 25°C, pH 8.0) | Kcat [2] | Kcat/Km [2] | Vmax ([2]; Michaelis-Menten fit)
CC(C)C[C@H](NC(=O)[C@H](C)NC(=O)CNC(=O)[C@H](Cc1ccc(OP(=O)(O)O)cc1)NC(=O)[C@H](CC(=O)O)NC(=O)[C@@H]1CCCN1C(=O)[C@H](CCC(=O)O)NC(=O)[C@H](C)NC(=O)[C@@H](N)[C@@H](C)O)C(=O)N[C@@H](Cc1ccc(O)cc1)C(=O)N[C@@H](CCC(=O)O)C(=O)O [Cuticle peptide] (H-TAEPD[pY]GALYE-OH) | 52.8 ± 0.69 M⁻¹ s⁻¹ | 104.5 ± 0.06 µM |  |  | 
O=[N+]([O-])c1ccc(OP(=O)(O)O)cc1 [pNPP, para-Nitrophenylphosphate] |  |  | 33.80 ± 0.59 s⁻¹ | 14.92 ± 0.98 x 10^3 sec^-1M^-1 | 24.89 µmol/min/mg and 24.89 ± 0.52 µmol/min/mg
